This is an account of results in patent publication US11311498B2, “Use of cannabinoids in the treatment of epilepsy” (GW Pharma Limited, priority 2014, dated 2022).

One series relates to absence seizures. Nature of the series: Expanded access program: absence seizures in children and young adults with treatment-resistant epilepsy. It counts as in vivo, human. Particulars: 12 weeks of treatment vs 4-week baseline; n = 28; CBD 5 up to 25 mg/kg/day added to baseline AED. As to the method: (§1) The terms “50% responder” and “50% reduction in seizure” are both terms used in clinical studies. In the present application the terms define the percentage of subjects that experienced a greater than or equal to 50% reduction in the number of seizures during treatment with CBD in comparison to the number experienced during the baseline period before the CBD was administered.
(§2) Of 137 children and young adults with severe, childhood onset treatment-resistant epilepsy (TRE), forty-two suffered from epilepsy that was characterised by absence seizures. These subjects were tested with a highly purified extract of cannabidiol (CBD) obtained from a cannabis plant. All subjects presented with absence type seizures, often in addition to other generalised and/or focal seizures. The participants in the study were part of an expanded access compassionate use program for CBD.
The epileptic syndromes that these patients suffered from were as follows: Lennox-Gastaut Syndrome; Myoclonic Absence Epilepsy; Tuberous Sclerosis Complex; Dravet Syndrome; Doose Syndrome; Jeavons Syndrome; CDKL5; Dup15q; Neuronal ceroid lipofuscinoses (NCL) and brain abnormalities. […]

The subject of series [1] is myoclonic absence seizures. Nature of the series: Expanded access program: myoclonic absence seizures in children and young adults with treatment-resistant epilepsy. The format is in vivo, human. Particulars: 12 weeks of treatment vs 4-week baseline; head n = 10; CBD 5 up to 25 mg/kg/day added to baseline AED. As to the method:
as §1
Of 137 children and young adults with severe, childhood onset treatment-resistant epilepsy (TRE), ten suffered from epilepsy that was characterised by myoclonic absence seizures. These subjects were tested with a highly purified extract of cannabidiol (CBD) obtained from a cannabis plant. All subjects presented with myoclonic absence type seizures, often in addition to other generalised and/or focal seizures. The participants in the study were part of an expanded access compassionate use program for CBD.
The epileptic syndromes that these patients suffered from were as follows: Myoclonic Absence Epilepsy; Doose Syndrome; and epilepsy of unknown cause.
(§3) All patients entered a baseline period of 4 weeks when parents/caregivers kept prospective seizure diaries, noting all countable seizure types.
The patients then received a highly purified CBD extract (greater than 98% CBD w/w) in sesame oil, of known and constant composition, at a dose of 5 mg/kg/day in addition to their baseline anti-epileptic drug (AED) regimen. […]

The next series concerns total seizures. Nature of the series: Expanded access program: total seizures in all subjects treated. It counts as in vivo, human. Particulars: 12 weeks of treatment, n = 137. As for the experimental part: as §1, §2, §3
The patients then received a highly purified CBD extract (greater than 98% CBD w/w) in sesame oil, of known and constant composition, at a dose of 5 mg/kg/day in addition to their baseline anti-epileptic drug (AED) regimen.
Laboratory testing for hematologic, liver, kidney function, and concomitant AED levels was performed at baseline, and after every 4 weeks of CBD therapy.

A short description of series [2]: Solubility of the drug substance in water. The format is physicochemical. The text has this:
Sesame oil was selected as an excipient to solubilize the drug substance.

The next series relates to seizures in mice. As to conditions: after pro-convulsant drugs or an electric current; cited from earlier work.
Series [3] relates to seizures. As to conditions: of eight adult patients with generalized epilepsy; cited from earlier work.
Series [4] relates to seizures. Particulars: 200 mg/day pure CBD, cited from earlier work.
For series [5], the system named is seizures. Particulars: twelve institutionalized adult patients; 200 mg/day pure CBD; open label; cited from earlier work.
The test system of series [6] is seizures. Particulars: previous studies in animals; multiple species and models; cited from earlier work.
For series [7], the system named is seizures. Particulars: Consroe et al., 1977; cited from earlier work.

For `C=C(C)[C@@H]1CCC(C)=C[C@H]1c1c(O)cc(CCCCC)cc1O` [CBD, Cannabidiol], the “<50% reduction in seizures, absence seizures (proportion of patients)” value in the series with absence seizures is recorded as 36% (n = 10). In [1], the “<50% reduction in seizures, myoclonic absence seizures (proportion of patients)” value is given as 25% (n = 2). Besides, the “<50% reduction in seizures, total seizures (proportion of patients)” value with total seizures is recorded as 54% (n = 74). Moreover, in series [2], the solubility in water result is listed as “insoluble in water”. Moreover, in the series on seizures in mice, the prevention of seizures entry was “able to prevent seizures”. For the same compound, the “patients with marked reduction of seizures” value in the series with seizures [3] was 4. For the same compound, the “patients who became seizure free” value with seizures [4] (of four adult patients) is “two”. Besides, in the series with seizures [4] (remaining two of four adult patients), the “seizure frequency in the remainder of patients” value is “unchanged”. For the same compound, the control of seizures entry in the series with seizures [5] was “ineffective in controlling seizures”. Further, the anticonvulsant efficacy entry with seizures [6] was “has anticonvulsant efficacy in multiple species and models”.

`CCCCCc1cc(O)c2c(c1)OC(C)(C)[C@@H]1CCC(C)=C[C@@H]21` [THC, Tetrahydrocannabinol]: the effect on convulsions entry in the series with seizures [7] is “pro-convulsant”.
